One block for each molecule: values may come before it.
Experiments:
[1] = molecular target: T1, Receptor-interacting serine/threonine-protein kinase 1 (Homo sapiens) (UniProt Q13546); assay: Selectivity interaction (KinomeScan (DiscoverX)) EUB0000666a RIPK1; settings: at 10 µM
T1 sequence (whole entry): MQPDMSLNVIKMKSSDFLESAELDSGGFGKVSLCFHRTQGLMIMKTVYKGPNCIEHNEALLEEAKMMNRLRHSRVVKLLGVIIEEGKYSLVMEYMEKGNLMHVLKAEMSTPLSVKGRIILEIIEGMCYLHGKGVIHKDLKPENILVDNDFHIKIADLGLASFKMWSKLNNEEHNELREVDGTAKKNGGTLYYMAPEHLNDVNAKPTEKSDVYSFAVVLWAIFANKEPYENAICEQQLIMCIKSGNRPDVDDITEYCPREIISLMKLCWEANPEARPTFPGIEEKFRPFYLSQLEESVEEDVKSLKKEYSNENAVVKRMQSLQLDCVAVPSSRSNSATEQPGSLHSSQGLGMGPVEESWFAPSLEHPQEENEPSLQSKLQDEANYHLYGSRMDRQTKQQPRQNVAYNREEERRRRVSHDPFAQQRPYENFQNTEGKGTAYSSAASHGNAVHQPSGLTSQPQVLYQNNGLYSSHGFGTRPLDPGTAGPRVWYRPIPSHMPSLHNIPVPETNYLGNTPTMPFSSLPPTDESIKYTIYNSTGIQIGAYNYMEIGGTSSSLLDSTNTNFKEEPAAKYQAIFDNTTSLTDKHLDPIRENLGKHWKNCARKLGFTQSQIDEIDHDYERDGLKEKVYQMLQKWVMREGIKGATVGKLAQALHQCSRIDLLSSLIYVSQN

[2] = molecular target: T2, Aurora kinase A (Homo sapiens) (UniProt O14965); assay: Selectivity interaction (Kinase panel (literature)) EUB0001199aCl STK6; settings: at 1 µM
T2 sequence (whole entry): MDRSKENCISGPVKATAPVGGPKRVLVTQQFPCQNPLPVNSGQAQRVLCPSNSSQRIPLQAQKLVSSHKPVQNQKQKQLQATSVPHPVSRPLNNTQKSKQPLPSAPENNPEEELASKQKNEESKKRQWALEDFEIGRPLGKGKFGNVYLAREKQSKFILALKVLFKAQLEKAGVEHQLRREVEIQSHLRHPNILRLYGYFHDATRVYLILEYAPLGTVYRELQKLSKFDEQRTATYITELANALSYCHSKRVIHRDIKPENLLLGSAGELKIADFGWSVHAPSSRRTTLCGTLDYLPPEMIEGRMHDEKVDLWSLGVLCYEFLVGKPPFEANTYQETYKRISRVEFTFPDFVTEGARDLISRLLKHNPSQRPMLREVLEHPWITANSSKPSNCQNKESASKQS

[3] = tested on: Phosphatidylinositol 4,5-bisphosphate 3-kinase catalytic subunit alpha isoform (Homo sapiens), P42336 [M1043I]; settings: at 10 µM
[4] = molecular target: Tyrosine-protein kinase HCK (Homo sapiens) (UniProt P08631); assay: Selectivity interaction (ActivX KiNativ screen (kinase selectivity in THP-1 cell lysates)) EUB0000639a HCK; type: subcellular; settings: lysate, at 0.01 µM
[5] = molecular target: 1-phosphatidylinositol 3-phosphate 5-kinase (Homo sapiens) (UniProt Q9Y2I7); assay: Selectivity interaction (KinomeScan (DiscoverX)) EUB0000695a PIKFYVE; settings: at 100 nM
[6] = molecular target: Tyrosine-protein kinase BTK (Homo sapiens, UniProt Q06187); assay: Selectivity interaction (KinomeScan (DiscoverX)) EUB0000655a BTK; settings: at 10 µM
[7] = Selectivity interaction (KinomeScan (DiscoverX)) EUB0001079a CDPK1; settings: at 1 µM
[8] = molecular target: Dual specificity protein kinase CLK1 (Homo sapiens, UniProt P49759); assay: Selectivity interaction (KinomeScan (DiscoverX)) EUB0001079a CLK1; settings: at 1 µM
[9] = molecular target: Ribosomal protein S6 kinase alpha-4 (Homo sapiens) (UniProt O75676); assay: Selectivity interaction (KinomeScan (DiscoverX)) EUB0000092b RPS6KA4; settings: at 10 µM
[10] = molecular target: Receptor-interacting serine/threonine-protein kinase 2 (Homo sapiens, UniProt O43353); assay: Selectivity interaction (KinomeScan (DiscoverX)) EUB0000618a RIPK2; settings: at 10 µM
[11] = molecular target: T3, Serine/threonine-protein kinase TAO2 (Homo sapiens) (UniProt Q9UL54); assay: Selectivity interaction (KinomeScan (DiscoverX)) EUB0001619a TAOK2; settings: at 1 µM
T3 sequence (whole entry): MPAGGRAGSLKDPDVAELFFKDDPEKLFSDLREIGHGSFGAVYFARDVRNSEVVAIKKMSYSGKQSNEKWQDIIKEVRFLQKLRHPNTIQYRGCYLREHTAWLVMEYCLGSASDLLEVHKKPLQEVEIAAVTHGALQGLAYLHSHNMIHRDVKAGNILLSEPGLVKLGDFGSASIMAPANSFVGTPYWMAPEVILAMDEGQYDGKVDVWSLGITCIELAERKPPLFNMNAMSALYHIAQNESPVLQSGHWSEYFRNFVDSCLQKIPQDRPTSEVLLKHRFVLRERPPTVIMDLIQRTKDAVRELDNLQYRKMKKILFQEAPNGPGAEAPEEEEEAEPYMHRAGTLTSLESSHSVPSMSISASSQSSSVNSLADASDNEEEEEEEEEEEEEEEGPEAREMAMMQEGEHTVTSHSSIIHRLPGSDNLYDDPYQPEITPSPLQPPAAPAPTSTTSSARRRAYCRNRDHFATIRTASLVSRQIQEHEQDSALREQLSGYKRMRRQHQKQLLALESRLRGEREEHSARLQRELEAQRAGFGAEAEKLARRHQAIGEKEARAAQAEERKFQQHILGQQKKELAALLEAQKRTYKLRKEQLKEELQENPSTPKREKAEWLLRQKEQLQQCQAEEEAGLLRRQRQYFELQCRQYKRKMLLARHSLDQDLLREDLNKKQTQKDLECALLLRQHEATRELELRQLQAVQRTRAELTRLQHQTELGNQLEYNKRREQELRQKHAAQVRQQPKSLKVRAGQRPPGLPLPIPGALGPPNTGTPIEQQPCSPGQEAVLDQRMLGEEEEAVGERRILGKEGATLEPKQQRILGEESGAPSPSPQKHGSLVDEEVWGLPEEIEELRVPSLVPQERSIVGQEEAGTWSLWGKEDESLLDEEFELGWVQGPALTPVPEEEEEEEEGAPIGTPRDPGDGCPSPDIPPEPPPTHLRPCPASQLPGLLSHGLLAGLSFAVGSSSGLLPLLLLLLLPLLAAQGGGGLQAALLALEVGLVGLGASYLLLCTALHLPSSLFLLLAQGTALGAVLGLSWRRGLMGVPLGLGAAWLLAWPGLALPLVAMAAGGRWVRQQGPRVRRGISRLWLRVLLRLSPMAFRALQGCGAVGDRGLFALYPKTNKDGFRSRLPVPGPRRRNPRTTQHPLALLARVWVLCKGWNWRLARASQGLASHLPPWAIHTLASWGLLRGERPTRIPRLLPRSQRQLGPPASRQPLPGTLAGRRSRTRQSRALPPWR

Tyrosine-protein kinase HCK (Homo sapiens), sequence (P08631 2-526 limits assumed): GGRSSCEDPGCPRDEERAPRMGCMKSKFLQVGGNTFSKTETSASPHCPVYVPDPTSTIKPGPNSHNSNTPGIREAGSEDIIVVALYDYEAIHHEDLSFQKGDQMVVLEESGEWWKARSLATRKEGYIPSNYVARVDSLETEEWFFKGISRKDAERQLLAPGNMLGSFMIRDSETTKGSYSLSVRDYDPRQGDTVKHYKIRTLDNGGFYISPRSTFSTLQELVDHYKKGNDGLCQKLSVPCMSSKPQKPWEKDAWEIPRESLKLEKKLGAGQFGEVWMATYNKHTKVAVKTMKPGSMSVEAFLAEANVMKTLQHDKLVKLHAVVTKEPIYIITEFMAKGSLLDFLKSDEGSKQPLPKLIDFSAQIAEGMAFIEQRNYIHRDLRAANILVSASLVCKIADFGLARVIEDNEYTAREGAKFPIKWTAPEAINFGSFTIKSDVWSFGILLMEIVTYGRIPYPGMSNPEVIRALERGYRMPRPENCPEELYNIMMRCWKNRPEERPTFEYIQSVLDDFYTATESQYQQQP
Dual specificity protein kinase CLK1, sequence (P49759 whole entry, looked up): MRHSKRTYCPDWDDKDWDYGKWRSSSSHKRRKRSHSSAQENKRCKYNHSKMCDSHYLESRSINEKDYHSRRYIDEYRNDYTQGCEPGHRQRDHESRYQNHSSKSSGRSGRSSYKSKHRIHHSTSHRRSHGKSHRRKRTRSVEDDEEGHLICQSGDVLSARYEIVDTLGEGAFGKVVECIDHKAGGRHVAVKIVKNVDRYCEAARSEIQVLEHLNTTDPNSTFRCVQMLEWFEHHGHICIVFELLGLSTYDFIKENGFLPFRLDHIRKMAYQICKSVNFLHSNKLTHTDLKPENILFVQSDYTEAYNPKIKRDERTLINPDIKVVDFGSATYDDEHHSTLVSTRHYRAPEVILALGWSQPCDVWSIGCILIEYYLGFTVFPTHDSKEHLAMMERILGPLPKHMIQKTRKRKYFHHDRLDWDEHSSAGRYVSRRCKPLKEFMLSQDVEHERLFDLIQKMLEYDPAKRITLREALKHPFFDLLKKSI
Receptor-interacting serine/threonine-protein kinase 2, sequence (O43353 whole entry): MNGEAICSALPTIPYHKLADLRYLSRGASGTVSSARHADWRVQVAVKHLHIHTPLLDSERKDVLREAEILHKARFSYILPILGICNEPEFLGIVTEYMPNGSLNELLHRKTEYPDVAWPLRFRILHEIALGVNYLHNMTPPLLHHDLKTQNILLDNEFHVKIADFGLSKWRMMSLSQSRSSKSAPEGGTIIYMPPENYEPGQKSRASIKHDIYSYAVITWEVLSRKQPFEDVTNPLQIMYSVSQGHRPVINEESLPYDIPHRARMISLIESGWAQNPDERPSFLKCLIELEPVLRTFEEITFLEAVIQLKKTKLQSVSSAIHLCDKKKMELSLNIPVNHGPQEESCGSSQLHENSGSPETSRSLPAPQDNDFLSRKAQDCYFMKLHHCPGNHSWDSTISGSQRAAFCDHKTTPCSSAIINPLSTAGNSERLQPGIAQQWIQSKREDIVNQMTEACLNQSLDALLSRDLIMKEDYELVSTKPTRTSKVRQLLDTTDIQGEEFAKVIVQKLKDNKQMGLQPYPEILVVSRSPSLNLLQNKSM
Tyrosine-protein kinase BTK, sequence (Q06187 whole entry): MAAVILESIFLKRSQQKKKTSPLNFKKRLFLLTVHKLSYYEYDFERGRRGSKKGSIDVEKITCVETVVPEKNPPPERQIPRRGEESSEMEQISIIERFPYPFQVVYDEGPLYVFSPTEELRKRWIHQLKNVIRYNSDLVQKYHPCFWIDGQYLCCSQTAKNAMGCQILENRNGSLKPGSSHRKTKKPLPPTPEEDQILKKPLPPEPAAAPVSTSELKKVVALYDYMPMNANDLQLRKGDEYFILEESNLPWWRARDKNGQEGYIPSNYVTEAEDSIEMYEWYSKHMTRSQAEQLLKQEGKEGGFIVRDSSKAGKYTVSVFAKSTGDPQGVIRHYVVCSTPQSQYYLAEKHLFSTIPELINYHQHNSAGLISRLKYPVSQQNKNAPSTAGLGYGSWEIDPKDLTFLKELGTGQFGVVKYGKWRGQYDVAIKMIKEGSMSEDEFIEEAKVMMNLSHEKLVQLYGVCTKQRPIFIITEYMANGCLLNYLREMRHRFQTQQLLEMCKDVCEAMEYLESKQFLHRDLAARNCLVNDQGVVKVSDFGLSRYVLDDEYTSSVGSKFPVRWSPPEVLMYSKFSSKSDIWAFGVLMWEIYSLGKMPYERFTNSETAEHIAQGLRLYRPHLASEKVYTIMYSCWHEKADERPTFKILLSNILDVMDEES
1-phosphatidylinositol 3-phosphate 5-kinase (Homo sapiens), sequence (Q9Y2I7 whole entry): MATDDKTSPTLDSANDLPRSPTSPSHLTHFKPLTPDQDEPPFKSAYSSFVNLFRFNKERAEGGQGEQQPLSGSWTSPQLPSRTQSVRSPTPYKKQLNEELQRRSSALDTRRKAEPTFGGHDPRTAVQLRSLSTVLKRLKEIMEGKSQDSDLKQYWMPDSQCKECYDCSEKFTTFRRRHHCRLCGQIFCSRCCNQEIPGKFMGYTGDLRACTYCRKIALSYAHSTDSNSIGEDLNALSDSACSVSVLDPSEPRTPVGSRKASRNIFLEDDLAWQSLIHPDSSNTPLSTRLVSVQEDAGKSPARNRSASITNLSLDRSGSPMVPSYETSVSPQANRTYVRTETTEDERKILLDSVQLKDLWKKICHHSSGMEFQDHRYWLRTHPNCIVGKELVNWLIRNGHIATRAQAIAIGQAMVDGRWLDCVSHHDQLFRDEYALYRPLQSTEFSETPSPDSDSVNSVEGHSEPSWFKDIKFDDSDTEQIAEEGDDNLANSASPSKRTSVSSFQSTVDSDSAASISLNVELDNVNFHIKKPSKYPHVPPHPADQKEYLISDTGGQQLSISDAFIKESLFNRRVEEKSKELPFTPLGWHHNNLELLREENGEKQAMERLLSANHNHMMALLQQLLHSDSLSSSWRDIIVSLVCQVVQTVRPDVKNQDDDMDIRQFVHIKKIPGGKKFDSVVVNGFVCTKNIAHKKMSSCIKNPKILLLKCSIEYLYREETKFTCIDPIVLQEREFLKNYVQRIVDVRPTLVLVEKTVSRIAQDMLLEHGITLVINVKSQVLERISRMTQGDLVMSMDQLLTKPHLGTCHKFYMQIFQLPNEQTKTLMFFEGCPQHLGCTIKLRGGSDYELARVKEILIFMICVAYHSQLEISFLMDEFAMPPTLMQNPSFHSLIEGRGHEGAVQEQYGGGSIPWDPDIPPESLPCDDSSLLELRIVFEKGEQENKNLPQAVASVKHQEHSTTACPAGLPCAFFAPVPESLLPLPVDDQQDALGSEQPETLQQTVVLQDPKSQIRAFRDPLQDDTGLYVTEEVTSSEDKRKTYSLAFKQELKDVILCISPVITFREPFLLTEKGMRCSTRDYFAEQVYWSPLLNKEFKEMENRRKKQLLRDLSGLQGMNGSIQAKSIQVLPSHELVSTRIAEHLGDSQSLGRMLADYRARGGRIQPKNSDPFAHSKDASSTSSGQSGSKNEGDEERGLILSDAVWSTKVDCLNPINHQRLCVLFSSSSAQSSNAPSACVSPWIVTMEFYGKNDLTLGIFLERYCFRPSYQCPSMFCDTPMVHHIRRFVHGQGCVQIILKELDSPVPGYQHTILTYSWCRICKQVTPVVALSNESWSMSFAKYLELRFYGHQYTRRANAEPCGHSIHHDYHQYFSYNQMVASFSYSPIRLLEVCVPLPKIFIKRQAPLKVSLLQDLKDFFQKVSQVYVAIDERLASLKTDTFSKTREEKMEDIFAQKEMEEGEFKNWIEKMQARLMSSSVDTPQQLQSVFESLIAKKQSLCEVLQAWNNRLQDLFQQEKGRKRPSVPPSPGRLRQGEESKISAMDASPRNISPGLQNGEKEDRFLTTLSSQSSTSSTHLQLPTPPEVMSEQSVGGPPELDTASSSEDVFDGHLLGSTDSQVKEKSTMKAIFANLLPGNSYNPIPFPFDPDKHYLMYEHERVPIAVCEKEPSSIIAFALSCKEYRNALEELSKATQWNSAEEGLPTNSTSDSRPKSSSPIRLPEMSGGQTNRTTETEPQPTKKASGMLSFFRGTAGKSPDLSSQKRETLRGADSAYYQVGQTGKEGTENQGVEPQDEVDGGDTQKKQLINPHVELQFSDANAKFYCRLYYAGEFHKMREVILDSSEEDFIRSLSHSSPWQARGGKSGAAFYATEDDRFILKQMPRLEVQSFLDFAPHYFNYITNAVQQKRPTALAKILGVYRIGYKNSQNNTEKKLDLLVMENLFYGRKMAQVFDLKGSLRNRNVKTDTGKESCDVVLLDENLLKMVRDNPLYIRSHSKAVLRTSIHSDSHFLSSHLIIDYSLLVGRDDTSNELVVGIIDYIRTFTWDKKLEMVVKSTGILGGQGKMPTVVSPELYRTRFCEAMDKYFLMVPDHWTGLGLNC
Ribosomal protein S6 kinase alpha-4 (Homo sapiens), sequence (O75676 whole entry, looked up): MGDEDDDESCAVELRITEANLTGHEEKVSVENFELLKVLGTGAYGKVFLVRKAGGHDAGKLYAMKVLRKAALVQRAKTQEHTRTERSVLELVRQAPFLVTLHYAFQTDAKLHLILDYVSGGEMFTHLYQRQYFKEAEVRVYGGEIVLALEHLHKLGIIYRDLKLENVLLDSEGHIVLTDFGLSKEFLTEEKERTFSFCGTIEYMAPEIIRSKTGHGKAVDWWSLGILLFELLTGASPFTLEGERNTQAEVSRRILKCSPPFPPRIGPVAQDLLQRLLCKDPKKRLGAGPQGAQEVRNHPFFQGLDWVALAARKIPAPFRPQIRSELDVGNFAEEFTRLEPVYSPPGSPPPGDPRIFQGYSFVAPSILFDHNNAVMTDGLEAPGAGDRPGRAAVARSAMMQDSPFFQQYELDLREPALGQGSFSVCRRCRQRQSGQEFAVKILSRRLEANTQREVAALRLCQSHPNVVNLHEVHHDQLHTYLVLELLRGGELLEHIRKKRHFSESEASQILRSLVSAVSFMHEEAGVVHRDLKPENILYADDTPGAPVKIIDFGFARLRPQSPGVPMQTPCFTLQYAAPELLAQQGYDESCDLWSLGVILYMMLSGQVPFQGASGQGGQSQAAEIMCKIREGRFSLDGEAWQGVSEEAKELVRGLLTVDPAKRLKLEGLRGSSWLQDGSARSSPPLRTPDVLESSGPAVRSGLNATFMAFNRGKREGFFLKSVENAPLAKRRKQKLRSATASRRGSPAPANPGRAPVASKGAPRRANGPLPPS

Structure (SMILES): O=C(NOC[C@H](O)CO)c1ccc(F)c(F)c1Nc1ccc(I)cc1F
% of control [1]: 85%

% of inhibition [2]: -4%
Structure (SMILES): CN1Cc2nccc(-c3cn(C)nc3-c3ccc(F)cc3)c2C1=O

Structure (SMILES): CNC(=O)Nc1ccc(-c2nc(N3CC4CCC(C3)O4)c3cnn(C4CCC5(CC4)OCCO5)c3n2)cc1
% of control [3]: 4.4%

% of inhibition [4]: -14.7%
Structure (SMILES): CC[C@@H]1[C@H](F)C(=O)N[C@@H]1COc1nccc2cc(C(N)=O)c(OC)cc12 [ZIMLOVISERTIB]

Structure (SMILES): Cc1cc(F)c(C(=O)Nc2cccc(-c3nncn3C(C)C)n2)cc1-n1cnc(C2CC2)c1
% of control [5]: 98%

Structure (SMILES): CN(C)CCOc1ccc(-c2nc(-c3ccncc3)c(-c3ccc4c(c3)CC/C4=N\O)[nH]2)cc1
% of control [6]: 92%

Structure (SMILES): Nc1cnc(N2CCc3cc(S(=O)(=O)Nc4c(F)cc(Cl)cc4F)cc(N4CCCC4=O)c32)nc1 [TP-020n]
% of control [7]: 97% | % of control [8]: 85%

Structure (SMILES): CCC(=O)N1CCN(c2ccc(-n3c(=O)ccc4cnc5ccc(-c6cnc7ccccc7c6)cc5c43)cc2C(F)(F)F)CC1
% of control [9]: 100%

Structure (SMILES): O[C@H]1CC[C@H](Nc2ncc3nc(Nc4c(F)cc(F)cc4F)n([C@H]4CCOC4)c3n2)CC1
% of control [10]: 37%

Structure (SMILES): N#Cc1cccc(-c2c[nH]c3ncnc(N4CCOCC4)c23)c1
% of control [11]: 100%
